Data as given in US10851069B2, “Compositions of crystallized hydrophobic compounds and methods of making and using same” (Massachusetts Institute of Technology, priority 2016, dated 2020).

Test system: C57BL/6 mice
Assay: PDMS discs loaded with GW2580 crystals implanted SC and IP
Type: in vivo
Method: Another study was done by mixing GW2580 crystals at different ratios of 1, 5 and 10% w/w with PDMS to form disks of 2.2 mm thickness and 5 mm diameter prepared at ratio 9:1 (PDMS: curing reagent) and were solidified overnight at 45° C. These disks were implanted into SC and IP spaces in C57BL/6 mice and then retrieved and analyzed at 2 weeks, 4 weeks, and 3 months post implantation in C57BL/6 mice (1 disc/site/mouse). […] Retrieved materials where fixed overnight using 4% paraformaldehyde at 4° C. After fixation, alginate sphere or retrieved tissue samples were washed using 70% alcohol. The materials where then mixed with 4 degrees calcium-cooled Histogel (VWR, CA #60872-486). After the molds hardened, the blocks were processed for paraffin embedding, sectioning and staining according to standard histological methods. Single-cell suspensions of freshly excised tissues were prepared using a gentle MACS Dissociator (Miltenyi Biotec, Auburn, Calif.) according to the manufacturer's protocol. Single-cell suspensions were prepared in a passive PEB dissociation buffer (1×PBS, pH 7.2, 0.5% BSA, and 2 mM EDTA) and suspensions were passed through 70 μm filters (Cat. #22363548, Fisher Scientific, Pittsburgh, Pa.). This process removed the majority of cells adhered to the surface (>90%). All tissue and material sample-derived, single-cell populations were then subjected to red blood cell lysis with 5 ml of 1×RBC lysis buffer (Cat. #00-4333, eBioscience, San Diego, Calif., USA) for 5 min at 4° C. The reaction was terminated by the addition of 20 ml of sterile 1×PBS. The cells remaining were centrifuged at 300-400 g at 4° C. and resuspended in a minimal volume (˜50 μl) of eBioscience Staining Buffer (cat. #00-4222) for antibody incubation. All samples were then co-stained in the dark for 25 min at 4° C. with two of the fluorescently tagged monoclonal antibodies specific for the cell markers CD68 (1 μl (0.5 μg) per sample; CD68-Alexa647, Clone FA-11, Cat. #11-5931, BioLegend), Ly-6G (Gr-1) (1 μl (0.5 μg) per sample; Ly-6G-Alexa-647, Clone RB6-8C5, Cat. #108418, BioLegend), CD11b (1 μl (0.2 μg) per sample; or CD11b-Alexa-488, Clone M1/70, Cat. #101217, BioLegend). For alpha smooth muscle actin (fibrosis) analysis, additional cell aliquots were also fixed in 1% paraformaldehyde and permeabilized with 0.1% triton X-100 before being stained with Cy3-conjugated anti-mouse αSM actin antibody (1:100) (Sigma Aldrich, St. Louis, Mo.). Two ml of eBioscience Flow Cytometry Staining Buffer (cat. #00-4222, eBioscience) was then added, and the samples were centrifuged at 400-500 g for 5 min at 4° C. Supernatants were removed by aspiration, and this wash step was repeated two more times with staining buffer. Following the third wash, each sample was resuspended in 500 μl of Flow Cytometry Staining Buffer and run through a 40 μm filter (Cat. #22363547, Fisher Scientific) for eventual FACS analysis using a BD FACSCalibur (cat. #342975), BD Biosciences, San Jose, Calif., USA). For proper background and laser intensity settings, unstained, single antibody, and IgG (labeled with either Alexa-488 or Alexa-647, BioLegend) controls were also run. For primate cell staining, anti-human CD68 Alexa Fluor-647-conjugated antibody (Clone KP1, Cat. #sc-20060, Santa Cruz, Dallas, Tex.) was used in conjunction with the above BioLegend (anti-mouse/human) CD11b-AF488 antibody.

SMILES: COc1ccc(COc2ccc(Cc3cnc(N)nc3N)cc2OC)cc1 [GW2580, 5-[[3-Methoxy-4-[(4-methoxyphenyl)methoxy]phenyl]methyl]-2,4-pyrimidinediamine]
- foreign body response (plaque on retrieved PDMS discs) (1, 5 and 10% w/w crystals, 2 and 4 weeks, 3 months): reduced in a dose-dependent fashion
- remaining drug levels (% loading, HPLC), SC versus IP (2 weeks, 4 weeks, 3 months): release was slower in the SC space
- responding macrophages dissociated from discs (FACS) (all time points, IP and SC): significantly reduced cell numbers
- immune cell infiltration and fibrosis (H&E and Masson's Trichrome) (excised SC and IP tissues, versus blank discs): significantly reduced immune cell infiltration and fibrosis
- drug retention, PDMS versus alginate (same incubation times): drug retention was much higher in polymer PDMS
